In PMC12021657, “Rapid traversal of vast chemical space using machine learning-guided docking screens” (Nature Computational Science, 2025):
Read-outs that look alike come from different tables or passages of the source.

Key:
Human A2AR = biological target: T1, Human A2AR (Homo sapiens, UniProt P29274); assay: Human A2AR competition radioligand binding ([3H]-ZM241385, HeLa-A2A membranes); conditions: for A2AR radioligand displacement at 20 µM (%): 20 µM compound, mean ± SEM of two technical replicates
T1 construct: expressed in transfected cells; host or cells: HeLa-A2A cell line (membranes prepared in house, lot A003/14-04-2019)
Protocol: (§1) Screening compounds (Supplementary Tables 10 and 12) were purchased from Enamine (compound purity >90%, which was confirmed by liquid chromatography−mass spectrometry and ^1H NMR spectroscopy for identified ligands; Supplementary Figs. 19–30). Human D2R competition binding experiments were carried out in polypropylene 96-well plates. Each well contained 20 µg of membranes from a CHO-D2R #S20 cell line (protein concentration of 4,322 µg ml^−1), 1.5 nM [^3H]-spiperone (54.3 Ci mmol^−1, 1 mCi ml^−1, PerkinElmer NET1187250UC) and the compound studied. Non-specific binding was determined in the presence of 10 µM sulpiride (Sigma Aldrich S8010). The reaction mixture (250 µl per well) was incubated at 25 °C for 120 min, after which 200 µl was transferred to a GF/C 96-well plate (Millipore) pretreated with 0.5% PEI and treated with binding buffer (50 mM Tris-HCl, 1 mM EDTA, 5 mM MgCl2, 5 mM KCl, 120 mM NaCl, pH 7.4). The reaction mixture was filtered and washed 4 times with 250 µl wash buffer (50 mM Tris-HCl, 0.9% NaCl, pH 7.4) before the addition of 30 μl Universol. The final measurement was performed in a microplate beta scintillation counter (Microbeta Trilux, PerkinElmer). Human A2AR competition binding experiments were carried out in a multiscreen GF/C 96-well plate (Millipore) pretreated with binding buffer (Tris-HCl 50 mM, EDTA 1 mM, MgCl2 10 mM, 2 U ml^−1 adenosine deaminase, pH 7.4). Each well was incubated with 5 μg of membranes from the HeLa-A2A cell line and prepared in our laboratory (lot A003/14-04-2019, protein concentration 2,058 μg ml^−1), 1 nM [^3H]-ZM241385 (50 Ci mmol^−1, 1 mCi ml^−1, ARC-ITISA 0884), and the compounds studied and standards. Non-specific binding was determined in the presence of NECA 50 μM (Sigma E2387). The reaction mixture (total volume of 200 μl per well) was incubated at 25 °C for 30 min, then filtered and washed 4 times with 250 μl wash buffer (Tris-HCl 50 mM, EDTA 1 mM, MgCl2 10 mM, pH 7.4), and measured in a microplate beta scintillation counter (Microbeta Trilux, PerkinElmer). Unless stated otherwise, three independent experiments were carried out to calculate Ki values.

Human D2R [1] = biological target: T2, Human D2R (Homo sapiens, UniProt P14416); assay: Human D2R competition radioligand binding ([3H]-spiperone, CHO-D2R #S20 membranes); conditions: for Ki: mean ± SEM from three independent experiments
T2 construct: expressed in transfected cells
Protocol: as §1

Human D2R [2] = biological target: T2, Human D2R; assay: Human D2R functional cAMP assay (HTRF, CHO-D2 #S20 cells, forskolin); type: cell-based
Protocol: Human D2R activity was measured by determining the amount of cAMP produced. Human D2R functional experiments were carried out in a CHO-D2 #S20 cell line. Five-thousand cells were seeded in 30 μl of Optimem (Invitrogen 11058) + 500 μM IBMX (Sigma 17018) on a 96-well black-and-white isoplate (PerkinElmer 6005030). Test compounds and dopamine were added in their corresponding wells and incubated for 10 min at 37 °C with gentle stirring (150 r.p.m.). Then, 10 µM forskolin (Sigma 17018) was added and incubated for 5 min at 37 °C with gentle stirring (150 r.p.m.). Reagents from the kit (#CISBIO 62AM4PEC) were added and incubated for 1 h at room temperature with gentle stirring (90 r.p.m.) and protected from light. HTRF (excitation wavelength: 320 nm; emission wavelengths: 620–665 nm) from each well was measured using a Tecan Infinite M1000 Pro. Two independent experiments were carried out to calculate EC50 and Emax values.

[3] = xlsx sheet A2AR_Displacement, read-out: Ki (A2AR) printed in column Displacement at 20 uM (%)

T1 sequence (P29274 whole entry): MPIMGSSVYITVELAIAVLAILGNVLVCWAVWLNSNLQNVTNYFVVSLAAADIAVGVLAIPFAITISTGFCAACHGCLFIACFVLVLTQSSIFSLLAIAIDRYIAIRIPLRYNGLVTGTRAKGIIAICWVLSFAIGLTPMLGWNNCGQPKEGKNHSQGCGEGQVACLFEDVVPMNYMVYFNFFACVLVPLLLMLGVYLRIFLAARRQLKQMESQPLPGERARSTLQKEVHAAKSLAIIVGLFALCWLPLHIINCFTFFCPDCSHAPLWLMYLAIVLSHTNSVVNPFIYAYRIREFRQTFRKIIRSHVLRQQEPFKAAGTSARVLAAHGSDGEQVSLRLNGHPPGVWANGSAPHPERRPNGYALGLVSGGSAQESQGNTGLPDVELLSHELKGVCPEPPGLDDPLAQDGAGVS
T2 sequence (P14416 whole entry): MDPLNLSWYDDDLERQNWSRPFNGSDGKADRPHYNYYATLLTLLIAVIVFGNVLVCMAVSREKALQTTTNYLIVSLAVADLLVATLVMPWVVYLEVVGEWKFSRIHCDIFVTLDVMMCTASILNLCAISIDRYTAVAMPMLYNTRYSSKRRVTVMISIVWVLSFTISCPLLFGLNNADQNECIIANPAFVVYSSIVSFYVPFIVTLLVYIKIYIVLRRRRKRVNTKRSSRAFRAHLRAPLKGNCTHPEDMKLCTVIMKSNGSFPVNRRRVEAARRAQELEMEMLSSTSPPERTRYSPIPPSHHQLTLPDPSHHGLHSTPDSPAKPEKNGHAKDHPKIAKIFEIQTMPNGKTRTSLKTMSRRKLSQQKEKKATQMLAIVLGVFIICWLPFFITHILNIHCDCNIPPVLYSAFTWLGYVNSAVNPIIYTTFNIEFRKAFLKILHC

Row | Compound | A2AR radioligand displacement at 20 µM (%) (Human A2AR) | also measured
1 | NC(=NCCc1ccccc1Cl)Nc1ncccn1 [Z8854579337, c1ccc(c(c1)CCN=C(N)Nc2ncccn2)Cl] | 29±4% | –
2 | Cc1cccc2[nH]c(NC(=O)C(N)Cc3csc4ccccc34)nc12 (stereo not drawn) [Z8854579351, Cc1cccc2c1nc([nH]2)NC(=O)C(Cc3csc4c3cccc4)N] | 31±1% | –
3 | O=C(CN1CCC1Cc1ccccc1)Nc1ncc[nH]1 (stereo not drawn) [Z6743522026, c1ccc(cc1)CC2CCN2CC(=O)Nc3[nH]ccn3] | 5±3% | –
4 | NC(=NCCCc1ccc(F)cc1)Nc1ncccn1 [Z8854579364, c1cnc(nc1)NC(=NCCCc2ccc(cc2)F)N] | 17±4% | –
5 | NC(CC(=O)Nc1cc2ncccn2n1)C(=O)OCc1ccccc1 (stereo not drawn) [Z8854579341, c1ccc(cc1)COC(=O)C(CC(=O)Nc2cc3ncccn3n2)N] | 2±2% | –
6 | NC(=NCc1ccsc1-n1cccc1)Nc1ncccn1 [Z8854579347, c1ccn(c1)c2c(ccs2)CN=C(N)Nc3ncccn3] | 32±4% | –
7 | Fc1ccc(-n2ccc(CCNC3Cc4ccccc4C3)n2)cc1 [Compound 1, c1ccc2c(c1)CC(C2)NCCc3ccn(n3)c4ccc(cc4)F] | – | D2R radioligand displacement at 10 µM (%) (Human D2R [1]; 10 µM compound, mean ± SEM of two technical replicates, listed as Z1441695252): 59 ± 1%; inhibition at 10 µM (Human D2R [1]; 2 h, 10 µM compound, mean ± SEM of two technical replicates, read-out: D2R radioligand displacement at 10 µM (%)): 59 ± 1%; Ki (Human D2R [1]): 3 µM; EC50 (Human D2R [2]; CHO-D2 #S20 cells, two independent experiments, read-out: EC50 (D2R-mediated changes in intracellular cAMP)): 10 µM; functional character at D2R (Human D2R [2]; cAMP assay): full agonists; Emax (Human D2R [2]; read-out: Emax (maximal effect)): 99%
8 | CCc1ccnc(NCC2CN(Cc3ccccc3)CC2C)n1 (stereo not drawn) [Z5471612810, CCc1ccnc(n1)NCC2CN(CC2C)Cc3ccccc3] | 2±1% | –
9 | CC(Cc1c[nH]c2ncccc12)NCc1nn(C)c2ccccc12 (stereo not drawn) [Z7272600070, CC(Cc1c[nH]c2c1cccn2)NCc3c4ccccc4n(n3)C] | 20±1% | –
10 | COc1ccc(Cl)c(CCN=C(N)Nc2ncccn2)c1 [Z8854579336, COc1ccc(c(c1)CCN=C(N)Nc2ncccn2)Cl] | 39±1% | –
11 | Cc1cccc2[nH]c(NC(=O)C(N)Cc3cccc(Cl)c3)nc12 (stereo not drawn) [Z8854579352, Cc1cccc2c1nc([nH]2)NC(=O)C(Cc3cccc(c3)Cl)N] | 57±4% | –
12 | NC(=NCc1c(Cl)cccc1Cl)Nc1ncccn1 [Z8861112994, c1cc(c(c(c1)Cl)CN=C(N)Nc2ncccn2)Cl] | 32±2% | –
13 | CSc1ccc(CCN=C(N)Nc2ncccn2)cc1 [Z8854579356, CSc1ccc(cc1)CCN=C(N)Nc2ncccn2] | 15±1% | –
14 | COc1cc(CNC(C)Cc2c[nH]c3ncccc23)ncc1C (stereo not drawn) [Z7326877935, Cc1cnc(cc1OC)CNC(C)Cc2c[nH]c3c2cccn3] | 13±2% | –
15 | CCc1ccc(CNCCc2c[nH]c3c(OC)cccc23)nc1 [Z3765568162, CCc1ccc(nc1)CNCCc2c[nH]c3c2cccc3OC] | 16±4% | –
16 | Cc1nc(NC(=O)C(N)Cc2cccc(Br)n2)[nH]c1C (stereo not drawn) [Z6382061841, Cc1c(nc([nH]1)NC(=O)C(Cc2cccc(n2)Br)N)C] | 2±2% | –
17 | NC(=NCCc1c(F)cccc1Br)Nc1ncccn1 [Z8854579363, c1cc(c(c(c1)Br)CCN=C(N)Nc2ncccn2)F] | 20±1% | –
18 | NC(=NCc1cc2ccccc2o1)Nc1ncccn1 [Z8854579345, c1ccc2c(c1)cc(o2)CN=C(N)Nc3ncccn3] | 32±2% | –
19 | NC(=NCCc1ccccc1OC(F)(F)F)Nc1ncccn1 [Z8854579353, c1ccc(c(c1)CCN=C(N)Nc2ncccn2)OC(F)(F)F] | 22±5% | –
20 | Cn1ccc(NC(=O)CNC(=O)C2Cc3c(Br)cccc3CN2)n1 (stereo not drawn) [Z8854579367, Cn1ccc(n1)NC(=O)CNC(=O)C2Cc3c(cccc3Br)CN2] | 10±2% | –

Row | Compound | A2AR radioligand displacement at 20 µM (%) (Human A2AR) | also measured
21 | NC(=NCCc1c(F)cccc1Cl)Nc1ncccn1 [Z8854579358, c1cc(c(c(c1)Cl)CCN=C(N)Nc2ncccn2)F] | 16±4% | –
22 | Cc1ccc(F)c(CCN=C(N)Nc2ncccn2)c1 [Z8854579366, Cc1ccc(c(c1)CCN=C(N)Nc2ncccn2)F] | 15±1% | –
23 | NC(Cc1ccccc1Cl)C(=O)N1CC(C(=O)Nc2nccs2)C1 (stereo not drawn) [Z6437654059, c1ccc(c(c1)CC(C(=O)N2CC(C2)C(=O)Nc3nccs3)N)Cl] | 3±2% | –
24 | O=C(Nc1ncccn1)C1CCN(CC(O)C2CCC2)CC1 (stereo not drawn) [Z3292775568, c1cnc(nc1)NC(=O)C2CCN(CC2)CC(C3CCC3)O] | 1±2% | –
25 | N[C@H]1c2ccccc2C[C@H]1C(=O)Nc1ccn(-c2ccccn2)n1 [Z8854579342, c1ccc2c(c1)C[C@H]([C@H]2N)C(=O)Nc3ccn(n3)c4ccccn4] | 30±2% | –
26 | Cc1cccc2c1CC(C(=O)NCCNc1ncccn1)NC2 (stereo not drawn) [Z8854579354, Cc1cccc2c1CC(NC2)C(=O)NCCNc3ncccn3] | 1±1% | –
27 | NC(=NCCc1cccc(Br)c1)Nc1ncccn1 [Z8854579355, c1cc(cc(c1)Br)CCN=C(N)Nc2ncccn2] | 28±1% | –
28 | O=C(CN1CC[C@H](Oc2ccccc2)C1)c1c[nH]c2nc(Cl)ccc12 [Compound 4, c1ccc(cc1)O[C@H]2CCN(C2)CC(=O)c3c[nH]c4c3ccc(n4)Cl] | – | Ki (Human A2AR; [3]): 1.4 µM
29 | NC(=NCCOc1ccc(F)cc1)Nc1ncccn1 [Z8854579344, c1cnc(nc1)NC(=NCCOc2ccc(cc2)F)N] | 17±1% | –
30 | CCOC(=O)c1cccc2[nH]c(NC(=O)C(N)Cc3ccco3)nc12 (stereo not drawn) [Compound 6, CCOC(=O)c1cccc2c1nc([nH]2)NC(=O)C(Cc3ccco3)N] | – | Ki (Human A2AR; [3]): 1.3 µM
31 | NC(=NCCc1ccc(F)cc1)Nc1ncccn1 [Z8854579370, c1cnc(nc1)NC(=NCCc2ccc(cc2)F)N] | 11±1% | –
32 | Cc1ccc(NCCNC(=O)C2Cc3c(C)cccc3CN2)nc1 (stereo not drawn) [Z8854579335, Cc1ccc(nc1)NCCNC(=O)C2Cc3c(cccc3CN2)C] | 6±2% | –
33 | COc1ccc(CCN=C(N)Nc2ncccn2)c(F)c1 [Z8854579362, COc1ccc(c(c1)F)CCN=C(N)Nc2ncccn2] | 12±4% | –
34 | N[C@@H](CC(=O)Nc1nc2c(Br)cc(F)cc2[nH]1)Cc1ccccc1 [Z8854579338, c1ccc(cc1)C[C@H](CC(=O)Nc2[nH]c3cc(cc(c3n2)Br)F)N] | 49±2% | –
35 | NC(=NCCc1c[nH]c2c(Cl)cc(Cl)cc12)Nc1ncccn1 [Compound 5, c1cnc(nc1)NC(=NCCc2c[nH]c3c2cc(cc3Cl)Cl)N] | – | Ki (Human A2AR; fit to concentration-response curve from two technical replicates, compound 5 three independent experiments (mean ± SEM), read-out: Ki (A2AR)): ~20 µM; Ki (Human D2R [1]): 14 µM
36 | Cc1ccc(C[C@H](N)CC(=O)Nc2nc3c(C)cccc3[nH]2)cc1 [Z8854579350, Cc1ccc(cc1)C[C@@H](CC(=O)Nc2[nH]c3cccc(c3n2)C)N] | 30±3% | –
37 | Cc1cccc(CC(N)C(=O)Nc2nc3c(Br)cc(F)cc3[nH]2)c1 (stereo not drawn) [Compound 3, Cc1cccc(c1)CC(C(=O)Nc2[nH]c3cc(cc(c3n2)Br)F)N] | – | Ki (Human A2AR; [3]): 2.5 µM
38 | Cc1ccncc1CNC(=O)C(N)Cc1c[nH]c2ncccc12 (stereo not drawn) [Z8857701713, Cc1ccncc1CNC(=O)C(Cc2c[nH]c3c2cccn3)N] | 3±2% | –
39 | NC(=NCCOc1ccc(F)c(Cl)c1)Nc1ncccn1 [Z8854579360, c1cnc(nc1)NC(=NCCOc2ccc(c(c2)Cl)F)N] | 26±3% | –
